# From patent publication US11352350B2, “IRAK degraders and uses thereof” (Kymera Therapeutics, Inc., priority 2018, dated 2022)
# How the values were obtained:
# IRAK4 [1] = target: T1, IRAK4 (Homo sapiens (Human), UniProt Q9NWZ3); assay: IRAK4 MSD degradation in OCI-LY10; assay type: cell-based; settings: MSD
# Procedure, shortened: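 Remaining IRAK4 quantified by electrochemiluminescent MSD sandwich assay with two anti-IRAK4 antibodies. Compounds were dosed as 8 concentrations in 1:3 steps from a 1 to 10 μM final top on OCI-LY10 cells, incubated 4 to 24 h at 37° C. under 5% CO2. DC50 fitted with a three-parameter logistic curve.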
# OCI-LY10 = assay: CTG Cell Viability Assay - OCI-LY10; assay type: cell-based, human; settings: Homo sapiens, OCI-Ly10, 96 h, OCI-LY10, 4 days; read-out: CTG Cell Viability Assay - OCI-LY10: Average external-IC50
# Procedure, shortened: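 Viability read by CellTiter-Glo luminescence after 4 days at 37° C under 5% CO2 with compound (top 10 μM final, 1:3 steps, 9 doses, DMSO 0.2%). Three-parameter logistic fit gave IC50.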
# IRAK4 [2] = target: T1, IRAK4; assay: IRAK4 degradation in human whole blood monocyte - flow cytometry; assay type: cell-based; settings: read-out: IRAK4 degradation in whole blood monocyte-Flow cytometry: Average external Abs IC50
# Description: (§1) Human whole blood IRAK4 degradation flow assay. Whole blood was collected in heparinized tubes and plated on the same day as draw (day 0). Whole blood was aliquoted into deep well plates. Compound plates were prepared and a 10 point, 5-fold dilution was performed with a final DMSO concentration of 0.1%. Compound was added to whole blood deep well plate, sealed and incubated at 37° C., 5% CO2 for 20 hours (for 4 hour treatment, compounds were prepared and added the following day). Following the treatment incubation period (day 1), BD lyse fix (BD #558049) was added to the whole blood plate, placed on plate shaker for 30 seconds and incubated for 10 mins at room temperature. Whole blood was then spun down and washed two times with PBS/0.5% BSA, aspirated to pellet and placed into −80° C. freezer until further processing for flow. On the flow run day, whole blood plates were thawed and samples were transferred to PCR plates. The pre-perm staining cocktail (CD3 Ax488/CD8 BUV805/CD14 BUV395/CD16/56 BV711/CD19 BV785) was added to samples and incubated for 30 minutes at room temperature. Samples were washed two times and permeabilized with Methanol for 10 minutes at 4° C. Samples were washed two times and the post-perm staining cocktail (CD4 PE/IRAK4 Ax647 BD #560315) was added and incubated for 30 minutes at room temperature. Samples were washed two times with PBS/BSA and run on a BD LSRFortessa. Mononuclear cells are gated by SSCH/FSCH and single cells. Monocytes are then gated through CD14 positive gate and lymphocytes are gated through CD14 negative gate. To determine absolute DC50 and max degradation values, MFI values were normalized to DMSO max and 20 hour 10 μM min control. Twenty hour dose curves were calculated using a 4 parameter logistic regression curve fit, no constraints (Top doses were removed if hook effects were observed and the bottom was constrained to 0).
# IRAK4 [3] = target: T1, IRAK4; assay: IRAK4 degradation in human whole blood lymphocyte - flow cytometry; assay type: cell-based; settings: read-out: IRAK4 degradation in whole blood lymphocyte-Flow cytometry: Average external Abs IC50
# Description: as §1
# TNFα [4] = assay: Human PBMC LPS TNFα assay; assay type: cell-based; settings: hPBMC, LPS stimulation, read-out: IRAK4 hPBMC LPS TNF-α inhibition: Average external-IC50
# Description: Human PBMC LPS TNFα assay. Frozen PBMCs were thawed into RPMI with 10% FBS/1% penicillin/streptomycin and same day plated into 96 well plates at 200,000 PBMC/[…] media per well. Compound plates were prepared in DMSO with D300 cassette as 8-point dose curves in duplicate, starting dose 2 μM, 5-fold. Compounds are added 200 nL into cells for final 200 μL per well. Compound and cells were incubated at 37° C., 5% CO2 for 20 hours. After twenty hours of pretreatment with the compounds, LPS (01 1 1:B4) (Sigma #L2637) was added at 100 ng/ml final concentration and PBMCs incubated an additional five hours at 37° C., 5% CO2. Following assay completion, PBMC plates were spun down at 2000 rpm for 10 minutes. 100 uL of supernatant was carefully removed and placed into a new 96 well Costar (#3879) plate and stored at −80° C. until further analysis. Meso scale Discovery (MSD) human V-plex assays were used to measure cytokine levels. On day of cytokine analysis, supernatant samples were thawed, diluted with V-plex diluent #2, and directly to MSD plates. Assay was further completed per standard manufacturer's protocol. Cytokine data was normalized to LPS stimulated and unstimulated controls. Prism Graphpad was used to generate IC50 using 4 parameter logistic regression curve, free-fit.
# TNFα [5] = assay: Human whole blood LPS TNFα assay; assay type: cell-based; settings: 20 h pretreatment, LPS 5 h, read-out: IRAK4 human whole blood LPS TNFa inhibition: Average external-IC50
# Description: Human Whole blood LPS TNFα assay. Whole blood was collected fresh and plated same day into 96 well plates at 180 μL per well. Compound plates were prepared in DMSO as 8-point dose curves in duplicate, starting dose 2 μM, 5-fold. Compounds are added 20 μL into blood for final 200 μL per well. Compound and cells were incubated at 37° C., 5% CO2 for 20 hours. After twenty hours of pretreatment with the compounds, LPS (01 1 1:B4) (Sigma #L2637) was added at 100 ng/ml final concentration and blood incubated an additional five hours at 37° C., 5% CO2. Following assay completion, whole blood plates were spun down at 2000 rpm for 15 minutes at 4° C. 50 μL of plasma was carefully removed and placed into a new 96 well Costar (#3879) plate and stored at −80° C. until further analysis. Meso scale Discovery (MSD) human V-plex assays were used to measure cytokine levels. On day of cytokine analysis, plasma samples were thawed, diluted with V-plex diluent #2, and directly to MSD plates. Assay was further completed per standard manufacturer's protocol. Cytokine data was normalized to LPS stimulated and unstimulated controls. Prism Graphpad was used to generate IC50 using 4 parameter logistic regression curve, free-fit.
# [6] = OCI-LY10, 4 hrs, read-out: IRAK4 MSD degradation in OCI-LY10 at 4 hrs: Average external-Abs DC50
# [7] = OCI-LY10, 24 hrs, read-out: IRAK4 MSD degradation in OCI-LY10 at 24 hrs: Average external-Abs DC50
# T1 sequence (Q9NWZ3 whole entry): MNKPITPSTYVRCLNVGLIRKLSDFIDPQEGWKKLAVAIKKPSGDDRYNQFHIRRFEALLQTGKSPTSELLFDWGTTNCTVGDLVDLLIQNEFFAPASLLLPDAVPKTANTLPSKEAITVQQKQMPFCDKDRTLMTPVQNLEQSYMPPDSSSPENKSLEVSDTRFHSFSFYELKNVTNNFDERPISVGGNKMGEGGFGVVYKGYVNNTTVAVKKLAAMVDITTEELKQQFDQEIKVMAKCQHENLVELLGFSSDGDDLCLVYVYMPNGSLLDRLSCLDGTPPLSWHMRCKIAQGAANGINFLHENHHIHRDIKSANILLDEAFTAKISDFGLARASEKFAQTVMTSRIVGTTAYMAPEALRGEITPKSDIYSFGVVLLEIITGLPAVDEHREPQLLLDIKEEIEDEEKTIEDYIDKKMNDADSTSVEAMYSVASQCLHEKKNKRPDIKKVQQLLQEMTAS
Structure (SMILES),DC50 (IRAK4 [1]; [6]) [nM],IC50 (OCI-LY10) [nM],IC50 (IRAK4 [2]) [nM],DC50 (IRAK4 [3]) [nM],IC50 (TNFα [4]) [nM],IC50 (TNFα [5]) [nM],DC50 (IRAK4 [2]) [nM],DC50 (IRAK4 [1]; [7]) [nM]
Cn1c(=O)n(C2CCC(=O)NC2=O)c2cccc(CCCOC3CCN(C[C@H]4CC[C@H](n5cc(NC(=O)c6coc(-c7ccnc(NCC8CC8)c7)n6)c(C(F)F)n5)CC4)CC3)c21 (stereo partly drawn) [I-48],< 10,< 50,< 50,< 50,100 to 500,100 to 500,–,–
Cn1c(=O)n(C2CCC(=O)NC2=O)c2cccc(CCCOCCNC[C@H]3CC[C@H](n4cc(NC(=O)c5coc(-c6ccnc(NCC(F)(F)F)c6)n5)c(C(N)=O)n4)CC3)c21 (stereo partly drawn) [I-11],< 10,> 1000,< 50,< 50,< 50,> 1000,–,–
CN(C[C@@H]1CN(CCCc2ccc3c(c2)n(C)c(=O)n3C2CCC(=O)NC2=O)CCO1)C[C@H]1CC[C@H](n2cc(NC(=O)c3coc(-c4ccnc(NCC5CC5)c4)n3)c(C(C)(C)O)n2)CC1 (stereo partly drawn) [I-33],< 10,> 1000,–,< 50,500 to 1000,–,500 to 1000,–
Cn1c(=O)n(C2CCC(=O)NC2=O)c2cccc(CCCOCC3CN(C[C@H]4CC[C@H](n5cc(NC(=O)c6coc(-c7ccnc(NCC8CC8)c7)n6)c(C(F)F)n5)CC4)C3)c21 (stereo partly drawn) [I-65],< 10,< 50,< 50,50 to 100,< 50,> 1000,–,–
CN(CCCOCCCc1ccc2c(c1)c1cccnc1n2C1CCC(=O)NC1=O)C[C@H]1CC[C@H](n2cc(NC(=O)c3coc(-c4ccnc(NCC5CC5)c4)n3)c(C(F)F)n2)CC1 (stereo partly drawn) [I-46],10 to 100,500 to 1000,–,100 to 500,100 to 500,> 1000,500 to 1000,10 to 100
CN(C[C@@H]1CN(CCCc2ccc3c(c2)n(C)c(=O)n3C2CCC(=O)NC2=O)CCO1)C(=O)[C@H]1CC[C@H](n2cc(NC(=O)c3coc(-c4ccnc(NCC5CC5)c4)n3)c(C(F)F)n2)CC1 (stereo partly drawn) [I-17],< 10,100 to 500,< 50,50 to 100,< 50,500 to 1000,–,–
C=C(C)c1nn([C@H]2CC[C@H](C(=O)N(C)CCCOCCCc3cccc4c3n(C)c(=O)n4C3CCC(=O)NC3=O)CC2)cc1NC(=O)c1coc(-c2ccnc(NCC3CC3)c2)n1 (stereo partly drawn) [I-31],100 to 1000,100 to 500,–,100 to 500,100 to 500,> 1000,50 to 100,–
Cn1c(=O)n(C2CCC(=O)NC2=O)c2cccc(CCCN3CCO[C@@H](CNC[C@H]4CC[C@H](n5cc(NC(=O)c6coc(-c7ccnc(NCC8CC8)c7)n6)c(C(F)F)n5)CC4)C3)c21 (stereo partly drawn) [I-38],< 10,< 50,< 50,50 to 100,< 50,100 to 500,–,–
Cn1c(=O)n(C2CCC(=O)NC2=O)c2cccc(CCCN3CCO[C@H](CNC[C@H]4CC[C@H](n5cc(NC(=O)c6coc(-c7ccnc(NCC8CC8)c7)n6)c(C(F)F)n5)CC4)C3)c21 (stereo partly drawn) [I-37],10 to 100,< 50,< 50,< 50,< 50,100 to 500,–,–
O=C1CCC(n2c3ccc(CCCOCCOCCNCC4CCC(n5cc(NC(=O)c6coc(-c7ccnc(NCC8CC8)c7)n6)c(C(F)F)n5)CC4)cc3c3cccnc32)C(=O)N1 (stereo not drawn) [I-47],10 to 100,100 to 500,–,100 to 500,100 to 500,> 1000,500 to 1000,10 to 100
CN(CC1CCN(Cc2cccc3c2n(C)c(=O)n3C2CCC(=O)NC2=O)CC1)C[C@H]1CC[C@H](n2cc(NC(=O)c3coc(-c4ccnc(NCC5CC5)c4)n3)c(C(F)F)n2)CC1 (stereo partly drawn) [I-76],< 10,< 50,–,50 to 100,< 50,–,50 to 100,–
O=C1CCC(n2c3cc(CCCOCCOCCNC[C@H]4CC[C@H](n5cc(NC(=O)c6coc(-c7ccnc(NCC8CC8)c7)n6)c(C(F)F)n5)CC4)ccc3c3cccnc32)C(=O)N1 (stereo partly drawn) [I-81],100 to 1000,> 1000,> 1000,> 1000,500 to 1000,–,–,–
CN(C[C@H]1CN(CCCc2ccc3c(c2)n(C)c(=O)n3C2CCC(=O)NC2=O)CCO1)C[C@H]1CC[C@H](n2cc(NC(=O)c3coc(-c4ccnc(NCC5CC5)c4)n3)c(C(F)F)n2)CC1 (stereo partly drawn) [I-34],< 10,> 1000,< 50,< 50,100 to 500,100 to 500,–,–
O=C1CCC(N2C[C@H](c3ccc(C#CCN4CCO[C@@H](CNC[C@H]5CC[C@H](n6cc(NC(=O)c7coc(-c8ccnc(NCC9CC9)c8)n7)c(C(F)F)n6)CC5)C4)cc3)OC2=O)C(=O)N1 (stereo partly drawn) [I-40],10 to 100,< 50,< 50,100 to 500,< 50,100 to 500,–,–
CN(CCCOCCCc1cccc2c1n(C)c(=O)n2C1CCC(=O)NC1=O)C[C@H]1CC[C@H](n2cc(NC(=O)c3cccc(C(F)(F)F)n3)c(C(F)F)n2)CC1 (stereo partly drawn) [I-44],> 1000,> 1000,–,–,> 1000,> 1000,–,> 1000
CN(CCCOCCCc1ccc2c(c1)n(C)c(=O)n2C1CCC(=O)NC1=O)C[C@H]1CC[C@H](n2cc(NC(=O)c3coc(-c4ccnc(NCC5CC5)c4)n3)c(C(F)F)n2)CC1 (stereo partly drawn) [I-62],< 10,50 to 100,< 50,< 50,100 to 500,> 1000,–,–
Cn1c(=O)n(C2CCC(=O)NC2=O)c2cccc(CCCOCCOCCNC[C@H]3CC[C@H](n4cc(NC(=O)c5coc(-c6ccnc(NCC7CC7)c6)n5)c(C(F)F)n4)CC3)c21 (stereo partly drawn) [I-2],100 to 1000,100 to 500,< 50,< 50,100 to 500,> 1000,–,–
CN(CCCCOCCCCc1cccc2c1n(C)c(=O)n2C1CCC(=O)NC1=O)C[C@H]1CC[C@H](n2cc(NC(=O)c3coc(-c4ccnc(NCC5CC5)c4)n3)c(C(F)F)n2)CC1 (stereo partly drawn) [I-67],< 10,< 50,–,50 to 100,50 to 100,–,50 to 100,–
